Patent publication US20100069316A1, “TREATMENT FOR MULTIPLE MYELOMA” (Ares Trading S.A., priority 2006, published 2010)
Where two headings read alike, the source gives them in different places.

How the values were obtained:
XG7 myeloma cell line = experiment: Cell proliferation assay (tritiated thymidine incorporation), XG7; type: cell-based, human; details: Homo sapiens, XG7, alone or with fixed Velcade/Melphalan
Method: (§1) Myeloma cells were harvested in the exponential growth phase (at day 3 after culture passage when the cell concentration is around 5×10^5 cells/ml). Cells were washed twice, cultured for 3 hours in RPMI1640 and 10% FCS, washed twice. This makes it possible to remove cell-bound growth factors (in particular recombinant IL-6). Then cells are plated in 96-well flat-bottomed microplates at various concentrations depending on their doubling time: • 5×10^3 cells/well in 100 μl for the cell lines: XG-1, XG-7 • 10^4 cells/well in […] for the cell lines: XG-2, XG-4, XG-6, XG-11, PRMI8226, L363 • 2×10^4 cells/well in 100 μl for the cell lines: XG-3, XG-12, XG-13, XG-14, XG-19, XG-20
(§2) The culture medium used were: • PRMI1640, 10% FCS and 0.5 ng/ml of IL-6 for XG-1, XG-2, XG-3, XG-4, XG-6, XG-7, XG-11, XG-12, XG-13, XG-19, XG-20 cells • X-VIVO20 and 0.5 ng/ml IL-6 for XG-14 cells • PRMI1640 and 10% FCS for RPMI8226 and L363 cells
(§3) The diluted compounds, DMSO or control culture medium were added in 100 μl at the start of the culture. Three culture wells were done for one compound dilution and the experiments were done twice (finally six culture wells for one compound dilution).
(§4) Cells were cultured for 4 days. Eight hours before the end of the culture, 0.5 μCi of tritiated thymidine were added in 50 μl of RPMI1640 and 10% FCS. Cells were then extracted with a cell collector and the thymidine incorporation was determined using a beta cell counter.
(§5) For each experiment, the mean tritiated thymidine incorporations (mean values determined on three culture wells) were plotted against the logarithmic concentrations of the compound. The curves were fitted with exponential regression, which was determined using the concentrations defining the inhibition response (usually 3-4 concentrations).
(§6) The concentrations yielding 50% and 90% inhibition of the proliferation of myeloma cells were determined with these regression curves.
(§7) The concentration yielding 10% (IC10) or 50% (IC50) inhibition of the myeloma cell lines were determined and the data are listed in Table 2.
(§8) Compound A was tested in combination with melphalan or Velcade. Increasing concentration of compound A (0, 0.01, 0.03, 0.12, 0.37, 1.1, 3.1, 10, 30 μM) were applied on 4 myeloma cell lines alone or in combination with Velcade or melphalan at concentration yielding around 10% or 50% inhibition.

XG-12 myeloma cell line = experiment: Cell cycle measurement (BrdU/PI, S phase), XG-12; type: cell-based, human; details: day 3 of culture
Method: The cell cycle distribution of the cell lines was assessed by flow cytometry analysis by propidium iodide (PI) and bromodeoxyuridine (BrdU) double-staining. Thirty minutes before stopping the culture, BrdU (10 μM) were added to the cultures and then the cells were collected by centrifugation, washed twice in phosphate buffer saline (PBS) and fixed in 70% ethanol for 20 minutes at room temperature. After two washes with PBS, cells were resuspended in 50 μL of 3N HCl, 0.5% Tween 20 and incubated 20 minutes at 20° C. to denature DNA. […] The fluorescence of FL1-H (BrdU) and FL2-A (PI) were analyzed on a FACScan flow cytometer using Cell Quest software (Becton Dickinson).
(§9) Two myeloma cell lines (XG-3 and XG-12) that are sensitive to compound A (1-(4-{4-[4-(4-chlorophenyl)-pyrimidin-2-ylamino]-benzoyl}-piperazin-1-yl)-ethanone) were selected for the study. To assess the effect of compound A on myeloma cell survival, the percentage apoptotic cells was determined using binding of annexin V to apoptotic cells. The effect of compound A on the cell cycle was assessed by evaluating the percentage of cells in the S phase of the cell cycle by incorporation of BrdU-FITC. Apoptosis, cell cycle and cell numeration were evaluated daily on a four day culture period on the cell lines using the IC10, IC50 and I90 respective doses of compound A.

14 myeloma cell lines = experiment: Cell proliferation assay (tritiated thymidine incorporation), panel of myeloma cell lines; type: cell-based; details: 14 human myeloma cell lines, 0.04-10 μM, 4 days culture
Method: Myeloma cell lines were passaged every 3-4 days in RPMI640 and 10% fetal calf serum (FCS). For the IL-6 dependent cell lines, 2 ng/ml of freshly thawed IL-6 (Abcys, France) was added at the beginning of the culture. Each cell line has unique phenotypic and HLA characteristics that make it possible to periodically check their identity.
The following cell lines were obtained in B. Klein's laboratory: XG-1, XG-2, XG-3, XG-4, XG-6, XG-7, XG-11, XG-12, XG-13, XG-14, XG-19, XG-20. (Zhang, et al., 1994; Rebouissou, et al., 1998)
RPMI8226 and L363 cell lines were purchased from ATCC.
Myeloma cells were harvested in the exponential growth phase (at day 3 after culture passage when the cell concentration is around 5×10^5 cells/ml). Cells were washed twice, cultured for 3 hours in RPMI1640 and 10% FCS, washed twice. This makes it possible to remove cell-bound growth factors (in particular recombinant IL-6). […]
Cells were cultured for 4 days. […] Cells were then extracted with a cell collector and the thymidine incorporation was determined using a beta cell counter.
as §5, with “concentrations). […]” for “concentrations).”

L363 myeloma cell line = experiment: Cell proliferation assay (tritiated thymidine incorporation), L363; type: cell-based, human; details: alone or with fixed Velcade/Melphalan; for IC50: concentration of compound A yielding 50% inhibition of proliferation, read-out: IC50; for IC90: concentration of compound A yielding 90% inhibition of proliferation
Method: as §1, §2, §3, §4, §5, §6, §7, §8

XG-3 myeloma cell line = experiment: Cell numeration, XG-3; type: cell-based, human; details: day 3 of culture
Method: as §9

XG12 myeloma cell line = experiment: Cell proliferation assay (tritiated thymidine incorporation), XG12; type: cell-based, human; details: Homo sapiens, XG12, alone or with fixed Velcade/Melphalan
Method: as §1, §2, §3, §4, §5, §6, §7, §8

[1] = concentration of compound A yielding 50% inhibition of proliferation, read-out: IC50
[2] = concentration of compound A yielding 90% inhibition of proliferation

IC50 (XG7 myeloma cell line; [1]): 6.36 µM
IC90 (XG7 myeloma cell line; [2]): 9.33 µM
IC50 (L363 myeloma cell line; Homo sapiens, L-363, L363): 2330 nM
IC90 (L363 myeloma cell line; Homo sapiens, L-363, L363): 10.1 µM
IC50 (L363 myeloma cell line; L363): 1790 nM
IC90 (L363 myeloma cell line; L363): 9.41 µM
IC50 (XG12 myeloma cell line; [1]): 974 nM
IC90 (XG12 myeloma cell line; [2]): 3.92 µM
SMILES: CC(=O)N1CCN(C(=O)c2ccc(Nc3nccc(-c4ccc(Cl)cc4)n3)cc2)CC1 [Compound A, 1-(4-{4-[4-(4-Chloro-phenyl)-pyrimidin-2-ylamino]-benzoyl}-piperazin-1-yl)-ethanone]
S phase (%) percentage of cells in the S phase (XG-12 myeloma cell line; XG-12, compound A at IC50 concentration): 37.3%
S phase (%) percentage of cells in the S phase (XG-12 myeloma cell line; XG-12, compound A at IC90 concentration): 6.8%
inhibition of the proliferation of myeloma cell lines (14 myeloma cell lines): full inhibition of the proliferation of 13 out 14 human myeloma cells
Cells (×10^6/ml) cell counts (XG-3 myeloma cell line; XG-3, compound A at IC10 concentration): 0.68 ×10^6/ml
Cells (×10^6/ml) cell counts (XG-3 myeloma cell line; XG-3, compound A at IC50 concentration): 0.47 ×10^6/ml
Cells (×10^6/ml) cell counts (XG-3 myeloma cell line; XG-3, compound A at IC90 concentration): 0.29 ×10^6/ml
